Test results reported in ChEMBL document CHEMBL1201862, “PubChem BioAssay data set” (2004).
The source made the active and inactive calls. For most assays here, no stated cut-off is given here; in the data, actives have a measured IC50 and inactives only a lower limit.

Columns and labels:
Format in all cases: functional
[1] = target: T1, Apoptotic protease-activating factor 1 (Homo sapiens, UniProt O14727); assay: SAR analysis of small molecule Activators of Apaf-1 in a Fluorescent assay.; details: read-out: EC50_Mean;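 further: caspase-3 cleavage of fluorogenic Rh110 DEVD substrate downstream of apoptosome activation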
T1 sequence (O14727 whole entry): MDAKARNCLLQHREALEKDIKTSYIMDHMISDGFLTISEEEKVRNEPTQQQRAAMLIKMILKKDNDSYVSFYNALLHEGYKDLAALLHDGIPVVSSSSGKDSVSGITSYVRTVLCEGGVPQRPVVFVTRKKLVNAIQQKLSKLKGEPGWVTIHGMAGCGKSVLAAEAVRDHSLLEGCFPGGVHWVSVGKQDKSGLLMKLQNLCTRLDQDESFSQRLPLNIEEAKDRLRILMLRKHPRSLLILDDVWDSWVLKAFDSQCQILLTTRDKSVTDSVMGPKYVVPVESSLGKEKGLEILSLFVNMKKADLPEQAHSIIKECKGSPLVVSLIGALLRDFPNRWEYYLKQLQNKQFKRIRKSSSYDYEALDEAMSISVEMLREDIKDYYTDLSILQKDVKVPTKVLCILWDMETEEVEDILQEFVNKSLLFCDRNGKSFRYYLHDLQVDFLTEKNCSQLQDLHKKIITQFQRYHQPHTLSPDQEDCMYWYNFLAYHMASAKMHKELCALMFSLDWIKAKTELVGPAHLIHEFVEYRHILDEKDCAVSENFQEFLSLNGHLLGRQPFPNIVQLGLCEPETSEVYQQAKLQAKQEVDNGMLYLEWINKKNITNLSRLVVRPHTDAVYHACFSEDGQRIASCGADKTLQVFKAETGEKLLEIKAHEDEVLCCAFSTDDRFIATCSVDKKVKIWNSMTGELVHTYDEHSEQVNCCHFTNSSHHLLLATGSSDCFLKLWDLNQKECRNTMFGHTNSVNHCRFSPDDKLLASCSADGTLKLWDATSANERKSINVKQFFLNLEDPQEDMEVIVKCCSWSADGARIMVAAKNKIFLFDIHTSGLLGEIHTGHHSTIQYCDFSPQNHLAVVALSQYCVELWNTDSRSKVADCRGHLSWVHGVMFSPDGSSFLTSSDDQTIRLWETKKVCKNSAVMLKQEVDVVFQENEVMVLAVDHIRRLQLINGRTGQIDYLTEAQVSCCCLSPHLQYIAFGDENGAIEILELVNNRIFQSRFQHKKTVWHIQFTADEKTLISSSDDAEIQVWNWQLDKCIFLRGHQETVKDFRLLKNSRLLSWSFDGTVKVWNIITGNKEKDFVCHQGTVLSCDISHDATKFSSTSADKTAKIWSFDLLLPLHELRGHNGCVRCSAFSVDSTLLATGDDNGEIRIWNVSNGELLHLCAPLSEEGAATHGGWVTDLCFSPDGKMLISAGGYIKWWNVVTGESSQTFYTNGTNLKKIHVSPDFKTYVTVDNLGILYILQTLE

[2] = target: T2, Sentrin-specific protease 8 (Homo sapiens, UniProt Q96LD8); assay: SENP8 protease inhibitors, SAR follow-up, biochemical, luminescence (AID 504501)
T2 sequence (Q96LD8 whole entry): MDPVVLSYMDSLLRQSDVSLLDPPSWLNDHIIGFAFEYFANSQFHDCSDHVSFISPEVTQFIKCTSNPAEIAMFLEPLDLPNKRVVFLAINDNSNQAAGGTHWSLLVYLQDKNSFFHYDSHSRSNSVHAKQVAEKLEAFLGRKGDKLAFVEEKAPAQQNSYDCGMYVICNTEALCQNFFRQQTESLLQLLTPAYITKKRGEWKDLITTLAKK

[3] = target: T3, Caspase-3 (Homo sapiens, UniProt P42574); assay: caspase-3 inhibitors as off-family protease, SAR follow-up, selectivity assay for SENP protease inhibitor project, biochemical, luminescence, set 2 (AID 588599)
T3 sequence (P42574 whole entry): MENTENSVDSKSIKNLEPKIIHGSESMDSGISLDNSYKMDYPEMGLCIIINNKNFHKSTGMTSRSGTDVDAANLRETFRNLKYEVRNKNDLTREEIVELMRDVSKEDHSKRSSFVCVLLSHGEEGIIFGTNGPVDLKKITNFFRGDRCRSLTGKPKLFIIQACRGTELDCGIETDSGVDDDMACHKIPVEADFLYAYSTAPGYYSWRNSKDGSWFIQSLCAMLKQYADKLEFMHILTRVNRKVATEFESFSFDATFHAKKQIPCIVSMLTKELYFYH

[4] = target: T2, Sentrin-specific protease 8; assay: SENP8 protease inhibitors, SAR follow-up, biochemical, luminescence, set 2 (AID 588601)
[5] = target: T3, Caspase-3; assay: SAR Analysis of small molecule inhibitors of Sentrin-specific proteases (SENPs) using a Caspase-3 Selectivity assay. [Related pubchem assays (depositor defined):AID2540, AID2599, AID434973, AID489001]
[6] = target: T4, Sentrin-specific protease 7 (Homo sapiens, UniProt Q9BQF6); assay: SENP7 protease inhibitors, SAR follow-up, biochemical, luminescence, set 2 (AID 588600)
T4 sequence (Q9BQF6 whole entry): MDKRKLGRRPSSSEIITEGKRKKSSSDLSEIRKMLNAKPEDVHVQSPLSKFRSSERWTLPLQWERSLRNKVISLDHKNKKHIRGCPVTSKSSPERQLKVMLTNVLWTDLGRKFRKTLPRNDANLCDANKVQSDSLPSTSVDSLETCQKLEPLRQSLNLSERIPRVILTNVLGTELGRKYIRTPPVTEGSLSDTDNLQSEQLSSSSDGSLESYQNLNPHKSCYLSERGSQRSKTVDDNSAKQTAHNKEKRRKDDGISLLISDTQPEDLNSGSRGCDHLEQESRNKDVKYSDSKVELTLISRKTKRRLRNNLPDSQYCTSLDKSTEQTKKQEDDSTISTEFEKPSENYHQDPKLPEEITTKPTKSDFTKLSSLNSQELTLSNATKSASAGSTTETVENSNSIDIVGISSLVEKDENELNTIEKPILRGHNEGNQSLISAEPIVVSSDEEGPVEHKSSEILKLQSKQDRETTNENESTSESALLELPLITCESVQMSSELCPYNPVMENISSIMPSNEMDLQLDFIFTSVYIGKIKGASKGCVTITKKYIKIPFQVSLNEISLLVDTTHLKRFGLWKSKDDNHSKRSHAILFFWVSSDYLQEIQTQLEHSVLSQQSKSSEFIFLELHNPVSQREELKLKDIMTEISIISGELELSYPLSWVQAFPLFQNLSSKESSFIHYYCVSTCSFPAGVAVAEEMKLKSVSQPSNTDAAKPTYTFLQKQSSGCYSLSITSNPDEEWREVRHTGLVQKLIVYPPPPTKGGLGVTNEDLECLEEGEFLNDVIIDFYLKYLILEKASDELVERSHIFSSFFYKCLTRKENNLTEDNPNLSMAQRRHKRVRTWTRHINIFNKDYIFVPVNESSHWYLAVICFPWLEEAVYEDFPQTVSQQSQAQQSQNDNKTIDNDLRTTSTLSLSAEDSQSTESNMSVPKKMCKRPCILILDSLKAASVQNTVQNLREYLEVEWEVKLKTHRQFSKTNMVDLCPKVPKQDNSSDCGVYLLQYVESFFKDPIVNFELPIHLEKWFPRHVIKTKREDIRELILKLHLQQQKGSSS

[7] = target: T5, Sentrin-specific protease 6 (Homo sapiens, UniProt Q9GZR1); assay: SAR Analysis of small molecule inhibitors of Sentrin-specific protease 6 (SENP6) using a Luminescent assay. [Related pubchem assays (depositor defined):AID2582, AID2599]
T5 sequence (Q9GZR1 whole entry): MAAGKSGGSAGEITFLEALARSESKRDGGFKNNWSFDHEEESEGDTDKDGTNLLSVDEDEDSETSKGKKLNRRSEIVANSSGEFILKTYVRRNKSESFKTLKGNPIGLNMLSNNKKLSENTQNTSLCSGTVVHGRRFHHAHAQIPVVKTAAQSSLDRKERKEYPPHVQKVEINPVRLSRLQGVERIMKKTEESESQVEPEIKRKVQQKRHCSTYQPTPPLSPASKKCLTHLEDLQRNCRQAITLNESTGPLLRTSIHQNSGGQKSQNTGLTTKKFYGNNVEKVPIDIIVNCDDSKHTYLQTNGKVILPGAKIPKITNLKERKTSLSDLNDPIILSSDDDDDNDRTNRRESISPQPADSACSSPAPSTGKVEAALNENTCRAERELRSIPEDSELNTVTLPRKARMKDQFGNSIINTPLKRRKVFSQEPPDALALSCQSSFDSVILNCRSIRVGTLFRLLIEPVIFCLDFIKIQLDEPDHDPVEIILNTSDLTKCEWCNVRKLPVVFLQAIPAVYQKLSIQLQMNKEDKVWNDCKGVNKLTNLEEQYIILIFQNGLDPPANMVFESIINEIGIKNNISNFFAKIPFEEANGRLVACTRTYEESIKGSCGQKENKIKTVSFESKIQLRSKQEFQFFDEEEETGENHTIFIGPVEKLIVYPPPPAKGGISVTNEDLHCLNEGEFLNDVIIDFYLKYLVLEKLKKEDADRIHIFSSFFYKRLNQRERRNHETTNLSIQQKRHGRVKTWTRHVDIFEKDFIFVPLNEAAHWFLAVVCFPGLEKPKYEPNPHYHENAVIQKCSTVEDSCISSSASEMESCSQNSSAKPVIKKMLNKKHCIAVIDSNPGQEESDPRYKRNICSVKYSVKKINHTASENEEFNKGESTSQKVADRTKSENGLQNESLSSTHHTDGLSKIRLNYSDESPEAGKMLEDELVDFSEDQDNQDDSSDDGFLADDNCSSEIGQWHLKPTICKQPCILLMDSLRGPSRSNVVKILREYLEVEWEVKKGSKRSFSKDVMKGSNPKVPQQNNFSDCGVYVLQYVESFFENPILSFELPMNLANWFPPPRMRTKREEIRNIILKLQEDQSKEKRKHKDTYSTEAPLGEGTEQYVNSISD

[8] = target: T5, Sentrin-specific protease 6; assay: SENP6 protease inhibitors, SAR follow-up, biochemical, luminescence, set 2 (AID 588598)
[9] = target: T4, Sentrin-specific protease 7; assay: SENP7 protease inhibitors, SAR follow-up, biochemical, luminescence (AID 504497)
[10] = target: Melanin-concentrating hormone receptor 1 (Homo sapiens, UniProt Q99705); assay: Late-stage fluorescence-based counterscreen for antagonists of the G-protein coupled receptor 7 (GPR7): cell-based dose response assay to identify antagonists of the melanin-concentrating hormone receptor 1 (MCHR1) Set 6.
[11] = target: T6, Neuropeptides B/W receptor type 1 (Homo sapiens, UniProt P48145); assay: GPR7 antagonist potency, late-stage follow-up, cell-based, fluorescence, dose response, set 6 (AID 588583)
T6 sequence (P48145 whole entry): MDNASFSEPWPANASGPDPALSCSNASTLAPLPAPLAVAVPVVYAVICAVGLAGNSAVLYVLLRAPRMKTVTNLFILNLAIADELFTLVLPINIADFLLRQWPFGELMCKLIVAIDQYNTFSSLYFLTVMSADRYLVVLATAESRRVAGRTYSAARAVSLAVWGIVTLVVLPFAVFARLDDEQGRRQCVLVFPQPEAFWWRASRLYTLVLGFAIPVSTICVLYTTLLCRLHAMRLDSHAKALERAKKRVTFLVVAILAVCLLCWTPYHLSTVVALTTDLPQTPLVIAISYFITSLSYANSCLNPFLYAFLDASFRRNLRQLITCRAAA

[12] = target: Aurora kinase A (Homo sapiens, UniProt O14965);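 further: value from the Navigating the Kinome kinase panel profiling, panel entry STK6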
[13] = target: Vascular endothelial growth factor receptor 2 (Homo sapiens, UniProt P35968)
[14] = target: Aurora kinase B (Homo sapiens, UniProt Q96GD4)
Sequence of Aurora kinase B (Q96GD4 whole entry): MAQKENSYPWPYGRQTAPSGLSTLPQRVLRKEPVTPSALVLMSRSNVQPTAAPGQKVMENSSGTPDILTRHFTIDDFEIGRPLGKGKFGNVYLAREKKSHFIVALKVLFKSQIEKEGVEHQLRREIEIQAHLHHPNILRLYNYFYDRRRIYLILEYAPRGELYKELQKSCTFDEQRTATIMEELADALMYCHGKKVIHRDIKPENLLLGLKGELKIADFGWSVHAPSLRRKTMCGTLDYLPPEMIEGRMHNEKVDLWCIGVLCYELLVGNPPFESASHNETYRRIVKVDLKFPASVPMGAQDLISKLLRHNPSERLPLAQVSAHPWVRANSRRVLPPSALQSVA

Sequence of Melanin-concentrating hormone receptor 1 (Q99705 whole entry): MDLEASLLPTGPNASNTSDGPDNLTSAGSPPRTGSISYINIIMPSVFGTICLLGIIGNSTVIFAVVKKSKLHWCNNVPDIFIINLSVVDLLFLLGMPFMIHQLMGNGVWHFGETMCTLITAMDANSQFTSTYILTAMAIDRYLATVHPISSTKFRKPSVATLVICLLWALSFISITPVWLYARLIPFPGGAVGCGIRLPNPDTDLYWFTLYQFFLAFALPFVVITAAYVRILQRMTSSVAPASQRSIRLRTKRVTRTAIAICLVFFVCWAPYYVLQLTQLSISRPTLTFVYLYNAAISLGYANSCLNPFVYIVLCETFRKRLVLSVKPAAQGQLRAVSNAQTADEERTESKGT
Sequence of Vascular endothelial growth factor receptor 2 (P35968 whole entry): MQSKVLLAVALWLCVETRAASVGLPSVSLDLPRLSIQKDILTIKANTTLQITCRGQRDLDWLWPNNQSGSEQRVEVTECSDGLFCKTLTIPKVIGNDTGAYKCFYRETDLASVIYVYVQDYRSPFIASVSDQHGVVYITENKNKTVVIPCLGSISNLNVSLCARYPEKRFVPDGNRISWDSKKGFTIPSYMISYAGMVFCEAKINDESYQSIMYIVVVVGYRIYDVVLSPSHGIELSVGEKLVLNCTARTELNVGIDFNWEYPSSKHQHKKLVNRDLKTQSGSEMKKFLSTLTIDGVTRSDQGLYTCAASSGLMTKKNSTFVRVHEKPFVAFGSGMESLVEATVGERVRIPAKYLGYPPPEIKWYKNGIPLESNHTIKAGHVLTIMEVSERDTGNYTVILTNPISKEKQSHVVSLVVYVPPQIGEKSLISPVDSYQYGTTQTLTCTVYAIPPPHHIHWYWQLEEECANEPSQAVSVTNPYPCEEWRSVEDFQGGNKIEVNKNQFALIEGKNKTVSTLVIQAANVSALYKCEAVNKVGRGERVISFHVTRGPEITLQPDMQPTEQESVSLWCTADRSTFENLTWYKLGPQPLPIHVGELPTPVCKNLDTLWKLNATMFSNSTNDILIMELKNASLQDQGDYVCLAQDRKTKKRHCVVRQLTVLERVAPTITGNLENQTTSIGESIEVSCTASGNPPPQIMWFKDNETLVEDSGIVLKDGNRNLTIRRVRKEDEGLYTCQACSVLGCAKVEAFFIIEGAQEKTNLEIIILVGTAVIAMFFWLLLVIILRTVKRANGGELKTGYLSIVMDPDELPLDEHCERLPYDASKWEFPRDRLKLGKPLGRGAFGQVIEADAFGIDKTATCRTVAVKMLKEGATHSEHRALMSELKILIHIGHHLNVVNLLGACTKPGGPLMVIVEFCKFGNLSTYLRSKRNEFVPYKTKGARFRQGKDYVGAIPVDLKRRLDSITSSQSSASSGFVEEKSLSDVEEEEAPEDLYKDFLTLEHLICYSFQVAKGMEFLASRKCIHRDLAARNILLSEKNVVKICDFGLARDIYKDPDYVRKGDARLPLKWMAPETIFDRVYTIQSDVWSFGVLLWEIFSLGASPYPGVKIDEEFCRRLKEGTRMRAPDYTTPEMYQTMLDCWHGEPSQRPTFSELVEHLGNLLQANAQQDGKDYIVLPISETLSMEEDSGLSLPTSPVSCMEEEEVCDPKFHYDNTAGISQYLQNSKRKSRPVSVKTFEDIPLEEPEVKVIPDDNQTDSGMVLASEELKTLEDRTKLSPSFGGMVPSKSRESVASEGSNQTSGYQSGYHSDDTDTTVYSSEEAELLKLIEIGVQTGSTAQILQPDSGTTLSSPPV
Sequence of Aurora kinase A (O14965 whole entry): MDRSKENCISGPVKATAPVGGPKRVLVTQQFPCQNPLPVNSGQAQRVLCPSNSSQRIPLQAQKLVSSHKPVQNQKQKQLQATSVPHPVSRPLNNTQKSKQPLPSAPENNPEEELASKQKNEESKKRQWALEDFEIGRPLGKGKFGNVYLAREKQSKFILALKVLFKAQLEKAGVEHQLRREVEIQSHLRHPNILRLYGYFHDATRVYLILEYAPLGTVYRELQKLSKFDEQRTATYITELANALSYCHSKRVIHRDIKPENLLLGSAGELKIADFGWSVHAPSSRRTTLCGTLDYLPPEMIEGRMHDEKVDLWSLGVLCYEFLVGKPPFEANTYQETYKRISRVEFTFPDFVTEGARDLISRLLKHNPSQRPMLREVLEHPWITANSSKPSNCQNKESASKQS

Structure (SMILES)	IC50 [2]	IC50 [3]	IC50 [4]	IC50 [5]	IC50 [6]	IC50 [7]	IC50 [8]	IC50 [9]	IC50 [10]	IC50 [11]	other results
CCOc1ccccc1NC(=O)CCS(=O)(=O)c1ccc2c(c1)oc(=O)n2C											EC50 [1]: > 100 µM (inactive)
CCCCc1ccc2nc(NC(=O)c3ccsc3)sc2c1	3.1 µM (active)	5.28 µM (active)	1.8 µM (active)	6.2 µM (active)	1.96 µM (active)	2.8 µM (active)	1.84 µM (active)	1.9 µM (active)			
Cc1cccc(-c2nc(/C=C/c3ccccc3)no2)c1	48 µM (active)	48.6 µM (active)	16.7 µM (active)	52 µM (active)	14.9 µM (active)	49 µM (active)	16.7 µM (active)	16 µM (active)			
COc1ccc(Oc2c(CO)cnn(Cc3cccc4ccccc34)c2=O)cc1									2.99 µM (active)	2.99 µM (active)	
N#CC(c1cccs1)c1c(Cl)cnn(Cc2cccc3ccccc23)c1=O (centres undefined)									1.07 µM (active)	1.07 µM (active)	
Cc1ccc(-c2nc3ccc(Br)cc3c(C(=O)O)c2CC(=O)O)cc1											Ki [12]: 0.0794 µM (active); Ki [13]: 0.501 µM (active); Ki [14]: 0.158 µM (active)
